Experimental data published in patent publication US5677329A, “Styryl-substituted monocyclic and bicyclic heteroaryl compounds which inhibit EGF receptor tyrosine kinase” (Rhone-Poulenc Rorer Pharmaceuticals, Inc., priority 1995, dated 1997).
Entries after “also recorded” stand apart in the source; their conditions may differ. Like-named read-outs stand apart in the source and are kept apart here.

Key:
EGF receptor [1] = assay: ATP dependence of EGF-receptor autophosphorylation (10-s assay); type: biochemical; settings: 15° C., read-out: Km for ATP in EGFR autophosphorylation
Experimental: EGF-Receptor Purification
EGF-receptor purification is based on the procedure of Yarden and Schlessinger. A431 cells are grown in 80 cm^2 bottles to confluency (2×10^7 cells per bottle). The cells are washed twice with PBS and harvested with PBS containing 1.0 mmol EDTA (1 hour at 37° C.), and centrifuged at 600 g for 10 minutes. The cells are solubilized in 1 ml per 2×10^7 cells of cold solubilization buffer (50 mmol Hepes buffer, pH 7.6, 1% Triton X-100, 150 mmol NaCl, 5 mmol EGTA, 1 mmol PMSF, 50 μg/ml aprotinin, 25 mmol benzamidine, 5 μg/ml leupeptic, and 10 μg/ml soybean trypsin inhibitor) for 20 minutes at 4° C. After centrifugation at 100000 g for 30 minutes, the supernatant is loaded onto a WGA-agarose column (100 μl of packed resin per 2×10^7 cells) and shaken for 2 hours at 4° C. The unabsorbed material is removed and the resin washed twice with HTN buffer (50 mmol Hepes, pH 7.6, 0.1% Triton X-100, 150 mmol NaCl), twice with HTN buffer containing 1M NaCl, and twice with HTNG buffer (50 mmol Hepes, pH 7.6, 0.1% Triton X-100, 150 mmol NaCl, and 10% glycerol). The EGF receptor is eluted batchwise with HTNG buffer containing 0.5M N-acetyl-D-glucosamine (200 μl per 2×10^7 cells). The eluted material is stored in aliquots at -70° C. and diluted before use with TMTNG buffer (50 mmol Tris-Mes buffer, pH 7.6, 0.1% Triton X-100, 150 mmol NaCl, 10% glycerol).

EGFR = target: T1, EGFR (Homo sapiens, UniProt P00533); assay: Inhibition of EGFR autophosphorylation (anti-EGF-R immunoprecipitate from A431 cells, EGF stimulation); type: biochemical; settings: for Relative inhibition of EGF receptor kinase, in words: comparison from Table V
T1 construct: endogenous in cells; host or cells: A431 cells (detergent lysate, anti-EGF-R Ab 108 immunoprecipitate)
T1 sequence (P00533 25-1210): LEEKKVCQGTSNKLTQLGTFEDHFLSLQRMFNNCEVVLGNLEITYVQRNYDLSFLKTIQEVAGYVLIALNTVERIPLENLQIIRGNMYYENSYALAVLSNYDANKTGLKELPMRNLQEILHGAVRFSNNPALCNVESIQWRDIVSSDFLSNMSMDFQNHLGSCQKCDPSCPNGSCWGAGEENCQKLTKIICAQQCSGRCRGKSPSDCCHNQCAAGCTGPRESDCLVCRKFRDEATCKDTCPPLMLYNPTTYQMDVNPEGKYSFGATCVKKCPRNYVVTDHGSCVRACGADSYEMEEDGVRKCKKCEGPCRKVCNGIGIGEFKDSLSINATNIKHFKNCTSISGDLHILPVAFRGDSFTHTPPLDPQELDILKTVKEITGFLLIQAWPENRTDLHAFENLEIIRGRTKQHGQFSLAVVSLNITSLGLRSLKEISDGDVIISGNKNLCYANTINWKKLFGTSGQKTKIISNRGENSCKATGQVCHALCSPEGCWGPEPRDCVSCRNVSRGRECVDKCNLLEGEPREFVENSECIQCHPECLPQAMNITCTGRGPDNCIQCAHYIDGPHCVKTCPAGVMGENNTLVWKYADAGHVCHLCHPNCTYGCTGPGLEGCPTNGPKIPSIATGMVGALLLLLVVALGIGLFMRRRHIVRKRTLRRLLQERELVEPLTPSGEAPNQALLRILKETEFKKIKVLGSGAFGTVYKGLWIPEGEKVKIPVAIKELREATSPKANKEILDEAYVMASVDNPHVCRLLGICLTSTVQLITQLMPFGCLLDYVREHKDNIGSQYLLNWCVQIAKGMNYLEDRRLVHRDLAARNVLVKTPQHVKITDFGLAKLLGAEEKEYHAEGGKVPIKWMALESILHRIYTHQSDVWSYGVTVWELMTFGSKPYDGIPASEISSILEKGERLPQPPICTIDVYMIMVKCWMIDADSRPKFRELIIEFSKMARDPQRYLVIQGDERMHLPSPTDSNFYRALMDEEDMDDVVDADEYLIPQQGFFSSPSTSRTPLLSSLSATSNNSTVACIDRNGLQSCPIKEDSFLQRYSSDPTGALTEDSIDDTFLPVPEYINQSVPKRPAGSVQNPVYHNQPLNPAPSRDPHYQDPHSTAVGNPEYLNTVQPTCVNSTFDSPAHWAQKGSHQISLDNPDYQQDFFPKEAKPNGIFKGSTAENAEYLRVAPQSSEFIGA
Experimental: Inhibition of EGFR Autophosphorylation A431 cells were grown to confluence on human fibronectin coated tissue culture dishes. […] The reaction was stopped by adding hot electrophoresis sample buffer. […] "IC50," as used below, refers to the concentration of inhibitor (μM) at which the rate of autophosphorylation is halved, compared with media containing no inhibitor. […] The EGFR autophosphorylation inhibition was evaluated using the same procedure as described hereinbefore.

[2] = system: DNA synthesis in PDGF-stimulated cells; assay: Inhibition of cell proliferation as measured by inhibition of DNA synthesis ([3H]thymidine incorporation), PDGF-stimulated cells; type: cell-based; settings: Table IV; PDGF stimulation; [3H]thymidine incorporation halved
Experimental: (§1) Inhibition of Cell Proliferation as Measured by Inhibition of DNA Synthesis Cells were seeded at 1×10^5 cells per well in 24-well Costar dishes pre-coated with human fibronectin (by incubating for 30 minutes at room temperature with 10 μg/0.5 ml/well). The cells were grown to confluence for 2 days. The medium was changed to DMEM containing […] for 36-48 hours and the cells were then incubated with PDGF, EGF (Toyobo, New York, N.Y.) (20 ng/ml) or serum (10% calf serum, FCS) and different concentrations of the inhibitory compounds. [^3 H]thymidine,(NEN, Boston, Mass.) was added 16-24 hours later at 0.5 μCi/ml for 2 hours. TCA precipitable material was quantitated by scintillation counting (C).

[3] = system: DNA synthesis in serum (FCS)-stimulated cells; assay: Inhibition of cell proliferation as measured by inhibition of DNA synthesis ([3H]thymidine incorporation), serum (10% FCS)-stimulated cells; type: cell-based; settings: 10% calf serum (FCS); for IC50: Table IV, [3H]thymidine incorporation halved; for inhibition at 1 µM: read-out: Inhibition of [3H]thymidine incorporation, FCS (printed in the IC50 - FCS column)
Experimental: as §1

PDGF receptor kinase = assay: Inhibition of autophosphorylation, procedure repeated with PDGF stimulation; type: biochemical; settings: Table III
[4] = system: cyclic adenosine 3', 5'-monophosphate (cAMP)-dependent protein kinase; settings: compared with EGF receptor autophosphorylation; cited from earlier work
EGF receptor [5] = settings: membranes of A431 cells; cited from earlier work
other protein kinases = settings: cited from earlier work
[6] = Table V, comparison with prior art compound C-1, same procedure as before, read-out: IC50, inhibition of EGFR autophosphorylation (Table V)
[7] = Table III, EGF stimulation, autophosphorylation 2 min at 4° C., read-out: IC50 EGF

SMILES | IC50 (EGFR; [7]) [nM] | IC50 (PDGF receptor kinase) [µM] | IC50 [2] [nM] | other results
Nc1ncnc2c1ncn2[C@@H]1O[C@H](COP(=O)(O)OP(=O)(O)OP(=O)(O)O)[C@@H](O)[C@H]1O [ATP, adenosine triphosphate] | – | – | – | Km (EGF receptor [1]): 7.2 µM
N#C/C(=C\c1cc(Cl)cc(Cl)c1)c1cccnc1 [Example 1A, trans-2-(3-Pyridyl)-3-(3,5-dichlorophenyl)-2-propenenitrile] | – | – | – | IC50 (EGFR; [6]): 2000 nM; Relative inhibition of EGF receptor kinase, in words (EGFR): more potent inhibitor of EGF receptor kinase than C-1; Relative inhibition of EGF receptor kinase, in words (EGFR; listed as 1-A): much better activity than that of its corresponding N-oxide
CC(C)(C)c1cc(C=C(C#N)c2ccccn2)cc(C(C)(C)C)c1 [Example 4, 2-(2-Pyridyl)-3-(3,5-di-tert-butylphenyl)-2-propenenitrile] | – | – | 9 ± 2 | IC50 [3]: 500 nM
COc1ccc(C=C(C#N)c2cccnc2)cc1OC [Example 7, 2-(3-Pyridyl)-3-(3,4-dimethoxyphenyl)-2-propenenitrile] | 400 | 30 | – | –
N#CC(=Cc1ccc(Cl)cc1Cl)c1cccnc1 [Example C-1, 2-(3-pyridyl)-3-(2,4-dichlorophenyl)-2-propenenitrile, reference compound] | – | – | – | IC50 (EGFR; [6]): ≥ 50000 nM
O=CN/C=C/c1cc(O)ccc1O [erbstatin] | – | – | – | Concentrations required to inhibit cAMP-dependent protein kinase, in words [4]: much higher concentrations of erbstatin are required; Inhibition of EGF receptor autophosphorylation, in words (EGF receptor [5]): inhibits the autophosphorylation of the EGF receptor; also recorded: Low concentrations of erbstatin are required to inhibit EGF receptor autophosphorylation
O=c1c(-c2ccc(O)cc2)coc2cc(O)cc(O)c12 [genistein] | – | – | – | Competition with ATP; inhibition of other protein kinases, in words (other protein kinases): compete with ATP, inhibit other protein kinases
O=c1c(O)c(-c2ccc(O)c(O)c2)oc2cc(O)cc(O)c12 [quercetin] | – | – | – | Competition with ATP; inhibition of other protein kinases, in words (other protein kinases): compete with ATP, inhibit other protein kinases

Further lines, with some results ahead:

IC50 (EGFR; [7]) [nM] | IC50 (PDGF receptor kinase) [µM] | SMILES | IC50 [2] [nM] | other results
100 | 20 | N#C/C(=C\c1cc(Cl)cc(Cl)c1)c1ccc[n+]([O-])c1 [Example 2, trans-2-(3-pyridyl)-3-(3,5-dichlorophenyl)-2-propenenitrile, N-oxide] | 30 ± 17 | IC50 [3]: 100 nM; IC50 (EGFR; [6]): ≥ 50000 nM
500 | 6 | COc1ccc(C=C(C#N)c2ccccn2)cc1OC [Example 3, 2-(2-Pyridyl)-3-(3,4-dimethoxyphenyl)-2-propenenitrile] | 14 ± 10 | inhibition at 1 µM [3]: 27 ± 5%
400 | 10 | COc1ccc(C=C(C#N)c2c[nH]c3ccccc23)cc1OC [Example 5, 2-(3-Indolyl)-3-(3,4-dimethoxyphenyl)-2-propenenitrile] | – | –
20000 | > 50 | COc1ccc(C=C(C#N)c2cn(S(=O)(=O)c3ccc([N+](=O)[O-])cc3)c3ccccc23)cc1OC [Example 6, 2-[1-(4-Nitrophenylsulfonyl)indol-3-yl]-3-(3,4-dimethoxyphenyl)-2-propenenitrile] | 17 | inhibition at 1 µM [3]: 15%
